According to patent publication US10485235B2, “Aryloxypyrimidinyl ethers as herbicides” (FMC Corporation, priority 2015, dated 2019):

Key:
Assay type in all cases: in vivo
[1] = test system: barnyardgrass (Echinochloa crus-galli); experiment: Test A preemergence, barnyardgrass; conditions: Preemergence, 0 to 100 scale (0 no effect, 100 complete control)
Method in brief: (§1)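 Planted seeds in loam soil mixed with sand; sprayed soil directly (pre). Grew seedlings to one- to two-leaf stage, 2–10 cm; sprayed foliage (post). Held in greenhouse ~10 days. Rated injury visually vs untreated controls, 0–100.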

[2] = test system: kochia (Kochia scoparia); experiment: Test A preemergence, kochia; conditions: Preemergence, 0 to 100 scale (0 no effect, 100 complete control)
Method in brief: as §1

[3] = test system: ragweed (common ragweed, Ambrosia elatior); experiment: Test A preemergence, ragweed; conditions: Preemergence, 0 to 100 scale (0 no effect, 100 complete control)
Method in brief: as §1

[4] = test system: ryegrass, Italian (Italian ryegrass, Lolium multiflorum); experiment: Test A preemergence, Italian ryegrass; conditions: Preemergence, 0 to 100 scale (0 no effect, 100 complete control)
Method in brief: as §1

[5] = test system: foxtail, giant (giant foxtail, Setaria faberii); experiment: Test A preemergence, giant foxtail; conditions: Preemergence, 0 to 100 scale (0 no effect, 100 complete control)
Method in brief: as §1

[6] = test system: pigweed (Amaranthus retroflexus); experiment: Test A preemergence, pigweed; conditions: Preemergence, 0 to 100 scale (0 no effect, 100 complete control)
Method in brief: as §1

[7] = test system: barnyardgrass (Echinochloa crus-galli); experiment: Test A postemergence, barnyardgrass; conditions: postemergence, 0 to 100 scale, 0 is no effect, 100 is complete control, approximately 10 days
Method in brief: as §1

[8] = test system: kochia (Kochia scoparia); experiment: Test A postemergence, kochia; conditions: postemergence, 0 to 100 scale, 0 is no effect, 100 is complete control, approximately 10 days
Method in brief: as §1

[9] = test system: ragweed (common ragweed, Ambrosia elatior); experiment: Test A postemergence, ragweed; conditions: postemergence, 0 to 100 scale, 0 is no effect, 100 is complete control, approximately 10 days
Method in brief: as §1

[10] = test system: ryegrass, Italian (Italian ryegrass, Lolium multiflorum); experiment: Test A postemergence, Italian ryegrass; conditions: postemergence, 0 to 100 scale, 0 is no effect, 100 is complete control, approximately 10 days
Method in brief: as §1

[11] = test system: foxtail, giant (giant foxtail, Setaria faberii); experiment: Test A postemergence, giant foxtail; conditions: postemergence, 0 to 100 scale, 0 is no effect, 100 is complete control, approximately 10 days
Method in brief: as §1

[12] = test system: pigweed (Amaranthus retroflexus); experiment: Test A postemergence, pigweed; conditions: postemergence, 0 to 100 scale, 0 is no effect, 100 is complete control, approximately 10 days
Method in brief: as §1

[13] = test system: wheat (Triticum aestivum); experiment: Test A postemergence, wheat; conditions: postemergence, 0 to 100 scale, 0 is no effect, 100 is complete control, approximately 10 days
Method in brief: as §1

[14] = test system: corn (Zea mays); experiment: Test A postemergence, corn; conditions: postemergence, 0 to 100 scale, 0 is no effect, 100 is complete control, approximately 10 days
Method in brief: as §1

[15] = test system: blackgrass (Alopecurus myosuroides); experiment: Test A postemergence, blackgrass; conditions: postemergence, 0 to 100 scale, 0 is no effect, 100 is complete control, approximately 10 days
Method in brief: as §1

[16] = test system: galium (catchweed bedstraw, Galium aparine); experiment: Test A postemergence, galium; conditions: postemergence, 0 to 100 scale, 0 is no effect, 100 is complete control, approximately 10 days
Method in brief: as §1

[17] = test system: rice (Oryza sativa); experiment: Test B flooded paddy test, rice; conditions: 250 g ai/ha, Flood; visual rating after 13 to 15 days; scale 0 to 100, 0 is no effect, 100 is complete control
Method in brief: (§2)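 Visual injury scored 0 (no effect) to 100 (complete control) relative to controls 13-15 days after treatment in greenhouse. Treatment: test compound added into paddy water of pots flooded 3 cm over soil, holding 2-leaf-stage plants; water level kept constant.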

[18] = test system: sedge, umbrella (small-flower umbrella sedge, Cyperus difformis); experiment: Test B flooded paddy test, umbrella sedge; conditions: 250 g ai/ha, Flood; visual rating after 13 to 15 days; scale 0 to 100, 0 is no effect, 100 is complete control
Method in brief: as §2

[19] = test system: ducksalad (Heteranthera limosa); experiment: Test B flooded paddy test, ducksalad; conditions: 250 g ai/ha, Flood; visual rating after 13 to 15 days; scale 0 to 100, 0 is no effect, 100 is complete control
Method in brief: as §2

[20] = test system: barnyardgrass (Echinochloa crus-galli); experiment: Test B flooded paddy test, barnyardgrass; conditions: 250 g ai/ha, Flood; visual rating after 13 to 15 days; scale 0 to 100, 0 is no effect, 100 is complete control
Method in brief: as §2

Row | Compound | Plant response rating, Barnyardgrass ([1]; 31 g ai/ha) | Plant response rating, Barnyardgrass ([1]; 125 g ai/ha) | Plant response rating, Kochia ([2]; 31 g ai/ha) | Plant response rating, Kochia ([2]; 125 g ai/ha) | Plant response rating, Ragweed ([3]; 31 g ai/ha) | Plant response rating, Ragweed ([3]; 125 g ai/ha) | Plant response rating, Ryegrass, Italian ([4]; 31 g ai/ha) | Plant response rating, Ryegrass, Italian ([4]; 125 g ai/ha) | Plant response rating, Foxtail, Giant ([5]; 31 g ai/ha) | Plant response rating, Foxtail, Giant ([5]; 125 g ai/ha) | Plant response rating, Pigweed ([6]; 31 g ai/ha) | Plant response rating, Pigweed ([6]; 125 g ai/ha) | Plant response rating, Barnyardgrass ([7]; 31 g ai/ha) | Plant response rating, Barnyardgrass ([7]; 125 g ai/ha) | Plant response rating, Kochia ([8]; 31 g ai/ha) | Plant response rating, Kochia ([8]; 125 g ai/ha) | Plant response rating, Ragweed ([9]; 31 g ai/ha) | Plant response rating, Ragweed ([9]; 125 g ai/ha) | Plant response rating, Ryegrass, Italian ([10]; 31 g ai/ha) | Plant response rating, Ryegrass, Italian ([10]; 125 g ai/ha) | also measured
1 | Cl/C=C/COc1c(Cl)cccc1Oc1ncc(Cl)cn1 [Compound 48] | 10 | 60 | 0 | 80 | 0 | 0 | 0 | 10 | 30 | 80 | 0 | 60 | 10 | 50 | 60 | 100 | 0 | 10 | 0 | 0 | Plant response rating, Foxtail, Giant ([11]; 31 g ai/ha): 20; Plant response rating, Foxtail, Giant ([11]; 125 g ai/ha): 60; Plant response rating, Pigweed ([12]; 31 g ai/ha): 50; Plant response rating, Pigweed ([12]; 125 g ai/ha): 80; Plant response rating, Wheat ([13]; 31 g ai/ha): 0; Plant response rating, Wheat ([13]; 125 g ai/ha): 10; Plant response rating, Corn ([14]; 31 g ai/ha): 10; Plant response rating, Corn ([14]; 125 g ai/ha): 20; Plant response rating, Blackgrass ([15]; 31 g ai/ha): 0; Plant response rating, Blackgrass ([15]; 125 g ai/ha): 10; Plant response rating, Galium ([16]; 31 g ai/ha): 10; Plant response rating, Galium ([16]; 125 g ai/ha): 30; Plant response rating, Rice [17]: 20; Plant response rating, Sedge, Umbrella [18]: 70; Plant response rating, Ducksalad [19]: 70; Plant response rating, Barnyardgrass [20]: 20
2 | FC(F)(F)C(F)(F)CCCOc1c(Br)cccc1Oc1ncc(Cl)cn1 [Compound 49] | 0 | 10 | 0 | 0 | 0 | 0 | 0 | 0 | 0 | 40 | 0 | 0 | 0 | 0 | 0 | 30 | 10 | 20 | 0 | 20 | Plant response rating, Foxtail, Giant ([11]; 31 g ai/ha): 0; Plant response rating, Foxtail, Giant ([11]; 125 g ai/ha): 10; Plant response rating, Pigweed ([12]; 31 g ai/ha): 10; Plant response rating, Pigweed ([12]; 125 g ai/ha): 60; Plant response rating, Wheat ([13]; 31 g ai/ha): 0; Plant response rating, Wheat ([13]; 125 g ai/ha): 0; Plant response rating, Corn ([14]; 31 g ai/ha): 10; Plant response rating, Corn ([14]; 125 g ai/ha): 10; Plant response rating, Blackgrass ([15]; 31 g ai/ha): 0; Plant response rating, Blackgrass ([15]; 125 g ai/ha): 0; Plant response rating, Galium ([16]; 31 g ai/ha): 10; Plant response rating, Galium ([16]; 125 g ai/ha): 30; Plant response rating, Rice [17]: 0; Plant response rating, Sedge, Umbrella [18]: 0; Plant response rating, Ducksalad [19]: 0; Plant response rating, Barnyardgrass [20]: 0
